Measured values as given in US6265390A, “Methods for expressing nucleic acid sequences using nucleic acid constructs comprising hypoxia response elements” (Oxford Biomedica (UK) Limited, priority 1994, dated 2001).

Assays:
[1] = tested on: 9-3C cells (HT1080 transfected with cytosine deaminase under 9-27 promoter with 3 copies of P18); assay: Hypoxia-induced pro-drug sensitisation, 9-3C cells; assay type: cell-based; conditions: 16 hours hypoxic exposure, 24 hours drug, 96 hour growth delay
Method: The PGK-1 hypoxia response element was evaluated within the context of the PGK-1 gene promoter (M3), the 9-27 gene promoter (9-3C) and the thymidine kinase gene promoter (sTK5).
The constructs were similar to those described in Example 7. The promoters and PGK-1 hypoxia response elements were placed upstream of genes encoding the endothelial CD2 surface protein and the negative selectable marker cytosine deaminase. The 9-27 and thymidine kinase promoters were each used with 3 copies of the P18 PGK-1 element and the PGK-1 gene promoter was used with 3 copies of the P24 PGK-1 element.
(§1) Transfected cells (9-3C and M3) as described in Example 9 were tested for sensitivity to 5-FC. Cells were subjected to hypoxic exposure (16 hours), followed by exposure to 5-FC or 5-FU (24 hours), followed by a 96 hour growth delay.

[2] = tested on: M3 cells (HT1080 transfected with cytosine deaminase under PGK-1 promoter with 3 copies of P24); assay: Hypoxia-induced pro-drug sensitisation, M3 cells; assay type: cell-based; conditions: 16 hours hypoxic exposure, 24 hours drug, 96 hour growth delay
Method: The PGK-1 hypoxia response element was evaluated within the context of the PGK-1 gene promoter (M3), the 9-27 gene promoter (9-3C) and the thymidine kinase gene promoter (sTK5). […] The promoters and PGK-1 hypoxia response elements were placed upstream of genes encoding the endothelial CD2 surface protein and the negative selectable marker cytosine deaminase. The 9-27 and thymidine kinase promoters were each used with 3 copies of the P18 PGK-1 element and the PGK-1 gene promoter was used with 3 copies of the P24 PGK-1 element. Transfected cells (9-3C and M3) as described in Example 9 were tested for sensitivity to 5-FC. Cells were subjected to hypoxic exposure (16 hours), followed by exposure to 5-FC or 5-FU (24 hours), followed by a 96 hour growth delay.

[3] = tested on: MCF-7 wild-type and thymidine phosphorylase transfectant clones; assay: Drug sensitivity of clones -4, -7, -12, -16, +4 compared with wild type; assay type: cell-based, human; conditions: FIG. 6
From the text: (§2) Human breast cancer cells of the cell line MCF-7 were transfected with a gene for thymidine phosphorylase. […] The gene is suitable for linking up with hypoxically-inducible promoters/enhancers.
(§3) Results of drug sensitivity experiments are shown in FIGS. 3-7. -7, -4, -12, +4 and +16 are all derivatives of MCF-7 which have been transfected with the thymidine phosphorylase gene.
(§4) Note that there is a log scale and therefore the IC50 (the concentration of drug required to inhibit growth by 50%) is more than 100 times lower for the transfectants -12 and -4. Therefore, the expression of one gene at a higher level can make these cells 100 times more sensitive to chemotherapy. Clearly there is variation depending on the level of expression and therefore we want to be able to switch on as high as possible. […] This means that it is the activation step that is important rather than downstream events.

[4] = tested on: MCF-7(-4) cells transfected with thymidine phosphorylase gene; assay: Drug sensitivity of thymidine phosphorylase transfectant -4; assay type: cell-based, human; conditions: survival curve, FIG. 3
From the text: as §2, §3, §4

[5] = tested on: control (Wt) non-transfected HT1080 cells and transfectant cells (9-3C, M3); assay: Drug sensitivity after hypoxic or normoxic treatment, control and transfectants; assay type: cell-based; conditions: 16 hours exposure, 24 hours drug, 96 hour growth delay
Method: as §1

[6] = tested on: endogenous mouse LDH-A gene expression in L cells; assay: RNA analysis of endogenous LDH-A gene expression; assay type: cell-based; conditions: 100 μM, 16 hours, hypoxia 1% O2
Method: (§5) The cell lines used were HepG2 (human hepatoma), HeLa (human cervical carcinoma) and L cells (mouse fibroblast) grown in minimal essential medium, with Earle's salts, supplemented with fetal bovine serum (10%), glutamine (2 mM), penicillin (50 units/ml) and streptomycin sulfate (50 μg/ml). For assay of endogenous gene expression, and for preparation of nuclear extracts, cells were grown to approximately 70% confluence. […]
(§6) RNA was extracted, analysed by RNase protection, and quantitated as previously described (Pugh et al 1991). […]
(§7) For assay of endogenous PGK-1 gene expression 50 μg of RNA extracted from HepG2 cells was hybridised with a riboprobe which consisted of 121 bp from the 5' end of the exon 3 of the human PGK-1 gene, together with 68 bp of adjacent intron (obtained by PCR of genomic DNA and cloning by standard methods). […] In these experiments a small quantity (0.5 μg) of RNA extracted from K562 cells (a human […] cell line which expresses a globin mRNA abundantly) was added to each sample before hybridisation, and the samples were probed concurrently with the α97 probe in addition to the PGK-1 or LDH-A probe. […]

[7] = tested on: endogenous human PGK-1 gene expression in HepG2 cells; assay: RNA analysis of endogenous PGK-1 gene expression; assay type: cell-based; conditions: 100 μM, 16 hours, hypoxia 1% O2
Method: as §5, §6, §7

For `Nc1nc(=O)[nH]cc1F` [5-FC, 5-fluorocytosine], the sensitivity post-hypoxia [1] was “significantly more sensitive” and the sensitivity post-hypoxia [2] was “significantly more sensitive”.

In the case of `O=c1[nH]cc(F)c(=O)[nH]1` [5FU, 5-fluorouracil], the “difference in sensitivity of the cells” value [3] is reported as “very little difference”, the “difference in sensitivity between WT and transfectant” value [4] is reported as “relatively little difference” and the “difference in sensitivity following hypoxic or normoxic treatment” value [5] is reported as “no significant difference”.

For `C[C@@H]1C[C@@H]([C@H](O)CC2CC(=O)NC(=O)C2)C(=O)[C@@H](C)C1` [cycloheximide], the “effect on hypoxic induction of gene expression” value [6] was “abrogated the response to hypoxia” and the “effect on hypoxic induction of gene expression” value [7] was “abrogated the response to hypoxia”.
